# Tests used:
# [1] = system: MV4-11 AML cells; experiment: Xenograft AML model with subcutaneously transplanted MV4-11 AML cells, alone and in combination with Venetoclax; format: in vivo, mouse; conditions: Aza-T-dCyd 2.0 mpk PO alone, Aza-T-dCyd 0.5 mpk with Venetoclax 50 mpk PO, Azacitidine 5.0 mpk IP alone
# Description: 5.0 mpk of Azacitidine alone; or 2.5 mpk of Azacitidine in combination of 50 mpk of Venetoclax were intraperitoneal (IP) administered as a control.
# [2] = target: cytidine deaminase (Homo sapiens, UniProt P32320); conditions: compared to conventional compounds with a 5-azacytidine backbone; cited from earlier work
# Sequence of cytidine deaminase (P32320 whole entry, species assumed): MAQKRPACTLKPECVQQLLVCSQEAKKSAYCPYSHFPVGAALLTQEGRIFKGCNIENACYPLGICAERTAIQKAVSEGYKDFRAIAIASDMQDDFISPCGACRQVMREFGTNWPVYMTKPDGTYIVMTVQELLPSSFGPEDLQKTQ
# [3] = Animal PK, NCA parameters, rat; conditions: in vivo
# [4] = system: Molm13 AML cells; experiment: Xenograft model with subcutaneously transplanted Molm13 AML cells; format: in vivo, mouse; conditions: 1.5 or 2.5 mpk PO, one cycle
# [5] = Animal PK, NCA parameters, mouse; conditions: in vivo
# [6] = system: blood cancer mouse models; experiment: Blood cancer mouse models (summary statement); format: in vivo; conditions: 1.4 to 2.6 mpk PO for 5 days, 2-day break, 9-day break
# [7] = Simulation of human PK using decitabine PK parameters; conditions: from animal parameters, used in human simulation
# Description: (§1) Without wishing to be bound by theory, this is excellent efficacy at a level that is impossible to reach by the same family of cytidine-based drugs such as decitabine or azacytidine, which was conventionally used, and according to conventional reports on Aza-T-dCyd, the level corresponds to a dose of a level expected to have toxicity.
# [8] = target: DNMT1 (Homo sapiens, UniProt P26358); conditions: background statement; cited from earlier work
# Sequence of DNMT1 (P26358 whole entry, species assumed): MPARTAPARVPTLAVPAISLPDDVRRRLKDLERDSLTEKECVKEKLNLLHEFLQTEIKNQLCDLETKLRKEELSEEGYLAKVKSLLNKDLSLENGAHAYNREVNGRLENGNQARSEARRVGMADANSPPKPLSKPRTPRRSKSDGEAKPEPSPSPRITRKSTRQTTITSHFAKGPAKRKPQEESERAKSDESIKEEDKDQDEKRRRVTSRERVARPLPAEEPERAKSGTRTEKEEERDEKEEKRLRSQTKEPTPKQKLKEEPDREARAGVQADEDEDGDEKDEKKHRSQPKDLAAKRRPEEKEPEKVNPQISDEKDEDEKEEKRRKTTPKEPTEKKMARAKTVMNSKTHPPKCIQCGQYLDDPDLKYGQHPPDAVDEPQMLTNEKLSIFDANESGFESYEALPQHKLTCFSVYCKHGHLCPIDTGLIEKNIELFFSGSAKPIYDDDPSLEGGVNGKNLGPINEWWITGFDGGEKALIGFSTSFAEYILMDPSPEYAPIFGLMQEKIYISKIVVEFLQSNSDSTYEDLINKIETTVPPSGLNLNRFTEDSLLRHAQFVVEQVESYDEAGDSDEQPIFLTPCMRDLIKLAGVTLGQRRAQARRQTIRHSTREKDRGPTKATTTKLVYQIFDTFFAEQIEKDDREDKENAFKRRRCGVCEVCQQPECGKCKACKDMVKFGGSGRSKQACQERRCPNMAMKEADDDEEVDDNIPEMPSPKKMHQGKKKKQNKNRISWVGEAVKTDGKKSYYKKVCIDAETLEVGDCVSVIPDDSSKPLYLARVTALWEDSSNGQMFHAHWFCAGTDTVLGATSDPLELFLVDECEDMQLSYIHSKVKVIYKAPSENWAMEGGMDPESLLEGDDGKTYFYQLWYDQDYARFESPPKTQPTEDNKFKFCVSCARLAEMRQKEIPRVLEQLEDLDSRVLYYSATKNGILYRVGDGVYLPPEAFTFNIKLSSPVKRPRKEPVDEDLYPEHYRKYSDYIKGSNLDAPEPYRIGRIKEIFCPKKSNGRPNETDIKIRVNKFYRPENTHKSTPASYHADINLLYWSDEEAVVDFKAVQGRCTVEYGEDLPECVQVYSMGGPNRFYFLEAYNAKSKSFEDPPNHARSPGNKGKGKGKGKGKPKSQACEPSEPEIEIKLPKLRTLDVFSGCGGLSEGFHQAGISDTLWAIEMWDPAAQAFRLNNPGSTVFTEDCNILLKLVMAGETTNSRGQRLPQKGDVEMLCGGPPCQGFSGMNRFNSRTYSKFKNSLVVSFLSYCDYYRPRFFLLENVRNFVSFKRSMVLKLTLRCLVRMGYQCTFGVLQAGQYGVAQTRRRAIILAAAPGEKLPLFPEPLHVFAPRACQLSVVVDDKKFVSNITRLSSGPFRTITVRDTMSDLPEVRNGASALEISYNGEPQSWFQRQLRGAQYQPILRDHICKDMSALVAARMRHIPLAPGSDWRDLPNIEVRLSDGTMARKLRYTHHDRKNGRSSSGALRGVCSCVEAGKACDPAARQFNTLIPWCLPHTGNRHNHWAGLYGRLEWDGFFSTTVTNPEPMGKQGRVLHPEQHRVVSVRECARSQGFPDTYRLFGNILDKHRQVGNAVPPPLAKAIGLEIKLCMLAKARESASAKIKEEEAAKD
# [9] = system: normal mouse; experiment: Bone marrow toxicity after one-cycle PO administration to a normal mouse; format: in vivo
# Description: In the case of elderly patients who cannot receive bone marrow transplants, that is, the main targets of decitabine and azacytidine, toxicity in the bone marrow becomes the limit dose that determines a dose for administration, and, thus, the maximum dose that enables safe administration was to be determined.
# [10] = Mouse PK (AUC); format: in vivo; conditions: for AUC: in vivo, mouse
# Description: as §1
# [11] = system: MV4-11 AML cells; experiment: Blood analysis (CBC sampling) in the systemic AML model; conditions: blood samples collected in the AML model experiment
# [12] = Animal PK, NCA parameters, dog; conditions: in vivo
# [13] = system: MV4-11 AML cells; experiment: Systemic AML model, MV4-11 AML cells transplanted into the bone marrow (survival, clinical observations)
# [14] = Absorption parameters over three species; format: in vivo, mice, rats, or dogs
# Description: Details are described in the next section. […] See also FIG. 3 and FIG. 7.
# The human F calculated by the equation reported in literature was about 0.65 (from mouse), 0.59 (from rat), or 0.66 (from dog). See Musther et al. (2014) European Journal of Pharmaceutical Sciences 57: 280-291.
# [15] = Human PK parameter prediction by interspecies (allometric) scaling; conditions: for F_human (equation result): in % (unit assumed)
# Description: PK parameters were scaled allometrically and used to extrapolate the PK in a 70 kg human. Details are described in the next section.
# Simple allometric scaling, was used to predict CL, Vc, Vp, and Q. Y is PK parameter, BW is body weight, a is the allometric coefficient, and b is the allometric exponent. Final PK parameters, CL, Vc, Vp, and Q, were extrapolated based on the best-fit-lines (FIG. 8).
# See Musther et al. (2014) European Journal of Pharmaceutical Sciences 57: 280-291.
# For absorption rate constant (Ka) and bioavailability (F), animal parameters were used.
# [16] = system: MDS orthotopic animal models; conditions: reported in 2018; cited from earlier work
# [17] = in vivo; conditions: rat, iv, 1 mg/kg
# [18] = in vivo; conditions: dog, iv, 0.33 mg/kg
# [19] = cited from earlier work
# [20] = in vivo; conditions: mouse, iv, 1 mg/kg
# [21] = human decitabine parameter used in simulation
smiles,measurement,setting,value
"Nc1ncn(C2CC(O)C(CO)S2)c(=O)n1 (stereo not drawn) [Aza-T-dCyd, 4′-Thio-5-aza-2′-deoxycytidine]",anti-cancer effects (tumor volume),[1],very excellent anti-cancer effects
same,rate of degradation by cytidine deaminase,[2],reduced rate of degradation by cytidine deaminase
same,bioavailability,[3],43.2%
same,AUC(0-inf),"[3]; iv, 1 mg/kg",1900 ng·h/mL
same,C0,"[3]; iv, 1 mg/kg",562 ng/mL
same,Vd,"[3]; iv, 1 mg/kg",3.53 L/kg
same,clearance,"[3]; iv, 1 mg/kg",8.83 mL/min/kg
same,half-life,"[3]; iv, 1 mg/kg",5.01 h
same,anticancer efficacy,[4],excellent anticancer efficacy close to tumor regression
same,bioavailability,[5],50.6%
same,AUC(0-inf),"[5]; iv, 1 mg/kg",406 ng·h/mL
same,C0,"[5]; iv, 1 mg/kg",616 ng/mL
same,Vd,"[5]; iv, 1 mg/kg",1.9 L/kg
same,clearance,"[5]; iv, 1 mg/kg",42.3 mL/min/kg
same,half-life,"[5]; iv, 1 mg/kg",0.6 h
same,anticancer effect,[6],significant anticancer effect
same,F Absolute bioavailability,[7],0.6
same,Ka The first-order absorption rate constant,[7],2.8 h⁻¹
same,DNMT removal and inhibitory activities in cells,[8],high DNMT removal and inhibitory activities in cells
same,change in the bone marrow,"[9]; 2.5 mpk PO, one cycle",a significant change in the bone marrow started to be observed
same,viability and composition of each cell in the bone marrow,"[9]; up to 2.0 mpk PO, one cycle (5 days, 2-day break, 5 days, 9-day break)",no significant change in the viability and composition of each cell in the bone marrow
same,maximum range of change of total area under curve (AUC),[10]; 2.0 mpk PO,approximately 25%
same,AUC,"[10]; oral, 0.07 mg/kg, 0.07 mpk",11.3 ng·h/mL
same,AUC,"[10]; oral, 0.13 mg/kg, 0.13 mpk",19.3 ng·h/mL
same,AUC,"[10]; oral, 0.27 mg/kg, 0.27 mpk",38.1 ng·h/mL
same,AUC,"[10]; oral, 0.4 mg/kg, 0.4 mpk",55.4 ng·h/mL
same,AUC,"[10]; oral, 0.8 mg/kg, 0.8 mpk",109 ng·h/mL
same,AUC,"[10]; oral, 1 mg/kg, 1.0 mpk",136 ng·h/mL
same,AUC,"[10]; oral, 1.4 mg/kg, 1.4 mpk",183 ng·h/mL
same,AUC,"[10]; oral, 1.5 mg/kg, 1.5 mpk",203 ng·h/mL
same,AUC,"[10]; oral, 2.5 mg/kg, 2.5 mpk",336 ng·h/mL
same,AUC,"[10]; oral, 2.6 mg/kg, 2.6 mpk",355 ng·h/mL
same,AUC,"[10]; oral, 3 mg/kg, 3.0 mpk",403 ng·h/mL
same,AUC,"[10]; oral, 10 mg/kg, 10 mpk",1340 ng·h/mL
same,AUC,"[10]; po, 2 mg/kg, 2.0 mpk",270 ng·h/mL
same,"blood analysis: major parameters (WBC, neutrophil, platelet, RBC levels)",[11],no change in major parameters
same,bioavailability,[12],68.7%
same,AUC(0-inf),"[12]; iv, 0.33 mg/kg",1130 ng·h/mL
same,C0,"[12]; iv, 0.33 mg/kg",586 ng/mL
same,Vd,"[12]; iv, 0.33 mg/kg",0.81 L/kg
same,clearance,"[12]; iv, 0.33 mg/kg",5 mL/min/kg
same,half-life,"[12]; iv, 0.33 mg/kg",2.25 h
same,therapeutic efficacy against MDS/AML,[13]; 1.4 to 2.6 mpk based on a mouse,excellent therapeutic efficacy against MDS/AML
same,efficacy,"[13]; 1.5 mpk PO, three cycles",an efficacy which did not reach that of the PO administration of 2.0 to 2.5 mpk of Aza-T-dCyd
same,clinical observations including body weight,"[13]; 2.0 mpk PO, one cycle",stay in the normal range
same,clinical observations including mouse body weight,"[13]; 2.0 mpk PO, three cycles",remained in the normal range
same,survival improvement,"[13]; 2.0 mpk PO, three cycles",very excellent survival improvement
same,death of subjects,"[13]; 2.5 mpk PO, three cycles",led to the death of some subjects
same,survival improvement,"[13]; one cycle, Aza-T-dCyd 2.0 mpk PO, decitabine and azacytidine at optimal doses as controls",very excellent survival improvement
same,average absorption rate constant (Ka),[14]; average from three species,approximately 2.63 h^−1
same,bioavailability,"[14]; mouse, rat, dog, in vivo, average from three species, read-out: average bioavailability (F)",~54%
same,Tmax,"[14]; mouse, rat, dog, in vivo, range of the three species",0.25 to 2 h
same,F_human (equation result),[15]; From Dog,66.28
same,F_human (equation result),[15]; From Mouse,65.16
same,F_human (equation result),[15]; From Rat,59.26
same,human Ka,"[15]; estimated assuming Tmax in a human is 1 hour, value set",2.8 h⁻¹
same,human F calculated by literature equation,[15]; from dog,~0.66
same,human F calculated by literature equation,[15]; from mouse,about 0.65
same,human F calculated by literature equation,[15]; from rat,~0.59
same,"CL Clearance, Predicted Value",[15]; predicted for a 70 kg human,8.95 L/h
same,"F Absolute bioavailability, Predicted Value",[15]; predicted for a 70 kg human,0.6
same,"Ka The first-order absorption rate constant, Predicted Value",[15]; predicted for a 70 kg human,2.8 h⁻¹
same,"Q Intercompartmental clearance, Predicted Value",[15]; predicted for a 70 kg human,250.52 L/h
same,"Vc Central volume = V2, Predicted Value",[15]; predicted for a 70 kg human,29.50 L
same,"Vp Peripheral volume = V3, Predicted Value",[15]; predicted for a 70 kg human,12.92 L
same,human F (set value),[15]; set in consideration of the results,0.6
same,toxicity,[16],so severe that therapeutic efficacy was not observed
"Nc1ncn([C@@H]2O[C@H](CO)[C@@H](O)[C@H]2O)c(=O)n1 [azacytidine, reference compound]","blood analysis: major parameters (WBC, neutrophil, platelet, RBC levels)",[11],severe neutropenia
"Nc1ncn([C@H]2C[C@H](O)[C@@H](CO)O2)c(=O)n1 [decitabine, reference compound]",AUC(0-inf),"[3]; iv, 1 mg/kg",2370 ng·h/mL
same,C0,"[3]; iv, 1 mg/kg",504 ng/mL
same,Vd,"[3]; iv, 1 mg/kg",2.16 L/kg
same,clearance,"[3]; iv, 1 mg/kg",7 mL/min/kg
same,AUC(0-inf),"[5]; iv, 1 mg/kg",268 ng·h/mL
same,C0,"[5]; iv, 1 mg/kg",579 ng/mL
same,Vd,"[5]; iv, 1 mg/kg",1.7 L/kg
same,clearance,"[5]; iv, 1 mg/kg",62.5 mL/min/kg
same,half-life,[17],3.71 h
same,half-life,[18],1.19 h
same,Q Intercompartmental clearance,[19]; [21],23 L/h
same,Vc Central volume = V2,[19]; [21],32 L
same,Vp Peripheral volume = V3,[19]; [21],40 L
same,CL Clearance,"[19]; human, reported in literature, used in human simulation",152 L/h
same,AUC(0-inf),"[12]; iv, 0.33 mg/kg",1080 ng·h/mL
same,C0,"[12]; iv, 0.33 mg/kg",746 ng/mL
same,Vd,"[12]; iv, 0.33 mg/kg",0.476 L/kg
same,clearance,"[12]; iv, 0.33 mg/kg",5.17 mL/min/kg
same,half-life,[20],0.4 h

# Source: patent US12208112B2, “Composition for treating blood cancer using 4′-thio-5-Aza-2′-deoxycytidine and uses thereof” (Southern Research Institute, priority 2020, dated 2025)
